Test results as given in paper PMC11589570, “Critical assessment of LC3/GABARAP ligands used for degrader development and ligandability of LC3/GABARAP binding pockets” (Nature Communications, 2024).
Values joined by “and” are separate entries in the source; they are usually repeats but may differ in a detail not shown here. Equal values may be shown once.

Legend:
[1] = target: LC3A (Homo sapiens, UniProt Q9H492); assay: FP assay with Cy5-labelled p62 LIR tracer (protein titration and tracer displacement); format: binding; conditions: two replicate columns per compound
[2] = target: LC3B (Homo sapiens, UniProt Q9GZQ8); assay: as above; format: binding; conditions: for normalized FP signal, p62 LIR tracer displacement: LC3B; for compound titration LC3B (displacement curve, FP signal): two replicate columns per compound
[3] = system: all LC3/GABARAPs; assay: Covalent compound screening by ESI LC-MS; conditions: 50 µM protein, 100 µM compound, 90 min
[4] = target: GABARAP (Homo sapiens, UniProt O95166); assay: FP assay with Cy5-labelled p62 LIR tracer (protein titration and tracer displacement); format: binding; conditions: two replicate columns per compound
GABARAP, sequence (O95166 1-116): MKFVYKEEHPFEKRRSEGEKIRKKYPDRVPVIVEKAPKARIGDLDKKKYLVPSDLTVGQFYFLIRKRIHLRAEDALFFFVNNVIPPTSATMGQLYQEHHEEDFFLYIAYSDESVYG

[5] = target: LC3C (Homo sapiens, UniProt Q9BXW4); assay: as above; format: binding; conditions: two replicate columns per compound
LC3C, sequence (Q9BXW4 1-126): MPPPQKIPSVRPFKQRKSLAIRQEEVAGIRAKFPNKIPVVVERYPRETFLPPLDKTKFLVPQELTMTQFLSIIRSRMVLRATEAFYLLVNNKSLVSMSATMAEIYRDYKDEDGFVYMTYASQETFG

[6] = target: GABARAPL1 (Homo sapiens, UniProt Q9H0R8); assay: as above; format: binding; conditions: for compound titration GABARAPL1 (displacement curve, FP signal): two replicate columns per compound; for FP tracer displacement curve signal (compound titration): duplicate values, listed as Cov2
GABARAPL1, sequence (Q9H0R8 whole entry): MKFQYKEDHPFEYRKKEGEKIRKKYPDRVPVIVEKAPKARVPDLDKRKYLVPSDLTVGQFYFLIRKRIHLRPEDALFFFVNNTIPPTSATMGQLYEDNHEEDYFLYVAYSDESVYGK

[7] = log10 concentration [M] -3.82391
[8] = log10 concentration [M] -4.1549
[9] = log10 concentration [M] -4.60206
[10] = log10 concentration [M] -5.30103
[11] = log10 concentration [M] -5.69897
[12] = log10 concentration [M] -6.22185
[13] = log10 concentration [M] -6.69897
[14] = log10 concentration [M] -7.30103
[15] = log10 concentration [M] -7.79588
[16] = log10 concentration [M] -8.08092

CC(=O)N1CCN(CCNC=C2C(=O)CC(c3ccc(Cl)cc3)CC2=O)CC1 (stereo not drawn) [compound 6]
compound titration LC3A (displacement curve, FP signal) [1, 7]: 92.8947 and 97.3684
compound titration LC3A (displacement curve, FP signal) [1, 8]: 97.1053 and 102.368
compound titration LC3A (displacement curve, FP signal) [1, 9]: 99.7368 and 100.789
compound titration LC3A (displacement curve, FP signal) ([1]; log10 concentration [M] -5): 103.421 and 103.947
compound titration LC3A (displacement curve, FP signal) [1, 10]: 103.421 and 100.789
compound titration LC3A (displacement curve, FP signal) [1, 11]: 99.7368 and 96.0526
compound titration LC3A (displacement curve, FP signal) [1, 12]: 101.316 and 102.105
compound titration LC3A (displacement curve, FP signal) [1, 13]: 103.947 and 107.368
compound titration LC3A (displacement curve, FP signal) [1, 14]: 104.211 and 101.579
compound titration LC3A (displacement curve, FP signal) [1, 15]: 104.211 and 98.6842
compound titration LC3A (displacement curve, FP signal) [1, 16]: 104.211 and 93.9474
normalized FP signal, p62 LIR tracer displacement [2, 7]: 71.5789 and 68.1579
normalized FP signal, p62 LIR tracer displacement [2, 8]: 85 and 83.6842
normalized FP signal, p62 LIR tracer displacement [2, 9]: 92.8947 and 95.7895
normalized FP signal, p62 LIR tracer displacement ([2]; log10 concentration [M] -5): 95.7895 and 97.3684
normalized FP signal, p62 LIR tracer displacement [2, 10]: 97.6316 and 99.7368
normalized FP signal, p62 LIR tracer displacement [2, 11]: 96.0526 and 102.368
normalized FP signal, p62 LIR tracer displacement [2, 12]: 95 and 100.789
normalized FP signal, p62 LIR tracer displacement [2, 13]: 99.2105 and 96.8421
normalized FP signal, p62 LIR tracer displacement [2, 14]: 99.7368 and 100.263
normalized FP signal, p62 LIR tracer displacement [2, 15]: 97.6316 and 101.579
normalized FP signal, p62 LIR tracer displacement [2, 16]: 95.2632 and 105.263
compound titration LC3B (displacement curve, FP signal) [2, 7]: 71.5789 and 68.1579
compound titration LC3B (displacement curve, FP signal) [2, 8]: 85 and 83.6842
compound titration LC3B (displacement curve, FP signal) [2, 9]: 92.8947 and 95.7895
compound titration LC3B (displacement curve, FP signal) ([2]; log10 concentration [M] -5): 95.7895 and 97.3684
compound titration LC3B (displacement curve, FP signal) [2, 10]: 97.6316 and 99.7368
compound titration LC3B (displacement curve, FP signal) [2, 11]: 96.0526 and 102.368
compound titration LC3B (displacement curve, FP signal) [2, 12]: 95 and 100.789
compound titration LC3B (displacement curve, FP signal) [2, 13]: 99.2105 and 96.8421
compound titration LC3B (displacement curve, FP signal) [2, 14]: 99.7368 and 100.263
compound titration LC3B (displacement curve, FP signal) [2, 15]: 97.6316 and 101.579
compound titration LC3B (displacement curve, FP signal) [2, 16]: 95.2632 and 105.263
covalent labelling (mass shift, ESI MS) [3]: successfully labelled
compound titration GABARAP (displacement curve, FP signal) [4, 7]: 90.8621 and 84.1379
compound titration GABARAP (displacement curve, FP signal) [4, 8]: 94.8276 and 93.7931
compound titration GABARAP (displacement curve, FP signal) [4, 9]: 93.1034 and 98.2759
compound titration GABARAP (displacement curve, FP signal) ([4]; log10 concentration [M] -5): 100.69 and 98.6207
compound titration GABARAP (displacement curve, FP signal) [4, 10]: 97.5862 and 99.4828
compound titration GABARAP (displacement curve, FP signal) [4, 11]: 92.2414 and 94.1379
compound titration GABARAP (displacement curve, FP signal) [4, 12]: 97.4138 and 95.5172
compound titration GABARAP (displacement curve, FP signal) [4, 13]: 98.1034 and 97.7586
compound titration GABARAP (displacement curve, FP signal) [4, 14]: 98.9655 and 102.759
compound titration GABARAP (displacement curve, FP signal) [4, 15]: 95.6897 and 95
compound titration GABARAP (displacement curve, FP signal) [4, 16]: 97.069 and 98.9655
compound titration LC3C (displacement curve, FP signal) [5, 7]: 87.8 and 86.8
compound titration LC3C (displacement curve, FP signal) [5, 8]: 94.6 and 92
compound titration LC3C (displacement curve, FP signal) [5, 9]: 98.2 and 98.8
compound titration LC3C (displacement curve, FP signal) ([5]; log10 concentration [M] -5): 94.6 and 102.4
compound titration LC3C (displacement curve, FP signal) [5, 10]: 93.4 and 98.8
compound titration LC3C (displacement curve, FP signal) [5, 11]: 90 and 93.6
compound titration LC3C (displacement curve, FP signal) [5, 12]: 93.6 and 98.6
compound titration LC3C (displacement curve, FP signal) [5, 13]: 97.6 and 98.8
compound titration LC3C (displacement curve, FP signal) [5, 14]: 101.6 and 101.4
compound titration LC3C (displacement curve, FP signal) [5, 15]: 90.4 and 95.6
compound titration LC3C (displacement curve, FP signal) [5, 16]: 99.2 and 98
compound titration GABARAPL1 (displacement curve, FP signal) [6, 7]: 89 and 90.4286
compound titration GABARAPL1 (displacement curve, FP signal) [6, 8]: 94.7143 and 97.7143
compound titration GABARAPL1 (displacement curve, FP signal) [6, 9]: 98.2857 and 100.143
compound titration GABARAPL1 (displacement curve, FP signal) ([6]; log10 concentration [M] -5): 102.429 and 101.571
FP tracer displacement curve signal (compound titration) [6, 11]: 94.4286 and 98.2857
FP tracer displacement curve signal (compound titration) [6, 12]: 101.857 and 101.143
FP tracer displacement curve signal (compound titration) [6, 13]: 102.714 and 104.571
FP tracer displacement curve signal (compound titration) [6, 14]: 102.571 and 101.857
FP tracer displacement curve signal (compound titration) [6, 15]: 99.8571 and 100.429
FP tracer displacement curve signal (compound titration) [6, 16]: 102.571 and 101
